Assay results from PubChem BioAssay (NCI).
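Briefly, cells in 96-well plates were exposed to five compound concentrations for 48 h, and endpoints were estimated by linear interpolation. TGI denotes the concentration required for complete inhibition of growth.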

Tested on: A549 NSCLC
Test: NCI anticancer screen, dose series, 48 h

| Structure (SMILES) | TGI [µM] |
| --- | --- |
| C=C1C(=O)C=C[C@]2(C)CC[C@H]3C(=C)C(=O)O[C@@H]3[C@@H]12 | 29.8 |
| CC12CCC(O)CC1CCC1C2CCC2(C)C(C(=O)CC(O)C(F)(F)F)CCC12 (stereo unspecified) | > 100 |
| CC(C)(C)OC(=O)NCCCNC1(c2cc3ccccc3s2)CCCCC1 | 27.2 |
| CC(C)(C)C(=O)CC1=Nc2ccccc2SC1(O)CC(=O)C(C)(C)C (stereo unspecified) | 51 |
| N#CC1=C(N)N(c2ccccc2)C(c2ccccc2)C1(C#N)C#N (stereo unspecified) | 45.2 |
| C=CCOc1ccc(C2(O)c3ccccc3C3=NCCCN32)cc1 (stereo unspecified) | > 100 |
| O=C1/C(=C/c2ccc(Cl)cc2)CSc2ccccc21 | > 100 |
| CCC/C(Cl)=N\OC(=O)Nc1ccc(OC(F)(F)F)cc1 | 42.3 |
| COc1cccc(/C=N/n2c(C)n[nH]c2=O)c1 | > 100 |
| Cc1ccc(S(=O)(=O)NC(=O)N[C@@H](Cc2cnc[nH]2)C(=O)O)cc1 | > 100 |
| CC(=O)OCC1OC(n2c3c(cc(C#N)c2=S)CCCCC3)C(OC(C)=O)C(OC(C)=O)C1OC(C)=O (stereo unspecified) | > 100 |
| CCN1CCC(O)(/C=C/c2ccc(C)cc2C)C(C(=O)/C=C/c2ccc(C)cc2C)C1 (stereo unspecified) | 11.1 |
| S=C(Nc1ccc2c(c1)oc1ccccc12)c1cccnc1 | > 100 |
| Cc1cc(S(=O)(=O)Nc2nc3cc(-c4ccc(Cl)cc4)sc3c(=O)n2N)c(S)cc1Cl | > 100 |
| [N-]=[N+]=NC1=C(c2ccccn2)C(=O)c2cccc3cccc1c23 | > 100 |
| C=C([C@@]1(O)C[C@H]2[C@H](CCC2(OC)OC)[C@@H]2c3ccccc3O[C@@H]21)[Si](C)(C)C | > 100 |
| O=C(O)c1ccc(OCc2nc3cc(C(F)(F)F)ccc3nc2-c2ccccc2)cc1 | > 100 |
| COc1ccc2c(c1)CCN1CCc3ccccc3CC21 (stereo unspecified) | > 100 |
| CN(C)c1ccc(C2SCC(=O)N2c2ccc(Oc3ccc(Cl)cc3)c(Cl)c2)cc1 (stereo unspecified) | 60.3 |
| COc1ccc(/C=C2\N=C(SC)NC2=O)cc1 | > 100 |
| Nc1ccc(C(=O)N2CCC[C@H]2CO)c(N)c1 | > 100 |
| O=c1oc2ccc([N+](=O)[O-])cc2c(Nc2ccc3c(c2)Oc2ccccc2O3)c1[N+](=O)[O-] | > 100 |
| CC1=C(CO)C(=O)O[C@@H]([C@@H](CO)[C@H]2CCC3C4C[C@@H](O)[C@@]5(O)CC=CC(=O)[C@]5(C)C4CC[C@@]32C)C1 (stereo partly specified) | > 100 |
| Cn1c2ccccc2c(=O)c2cccc(C(=O)NC(CCCN=C(N)N)C(=O)O)c21 (stereo unspecified) | > 100 |
| O=C(O)/C=c1/c2ccccc2n2nc3ccccc3c12 | > 100 |
| O=C1c2ccccc2C2(c3ccc(Cl)cc3)N[C@H]3CCCC[C@@H]3N12 (stereo partly specified) | > 100 |

Tested on: ACHN renal
Test: NCI anticancer screen, dose series, 48 h

| Structure (SMILES) | TGI [µM] |
| --- | --- |
| C=C1C(=O)C=C[C@]2(C)CC[C@H]3C(=C)C(=O)O[C@@H]3[C@@H]12 | 9.59 |
| CC12CCC(O)CC1CCC1C2CCC2(C)C(C(=O)CC(O)C(F)(F)F)CCC12 (stereo unspecified) | > 100 |
| CC(C)(C)OC(=O)NCCCNC1(c2cc3ccccc3s2)CCCCC1 | 33.6 |
| CC(C)(C)C(=O)CC1=Nc2ccccc2SC1(O)CC(=O)C(C)(C)C (stereo unspecified) | 70.2 |
| N#CC1=C(N)N(c2ccccc2)C(c2ccccc2)C1(C#N)C#N (stereo unspecified) | 40.7 |
| C=CCOc1ccc(C2(O)c3ccccc3C3=NCCCN32)cc1 (stereo unspecified) | > 72.2 |
| CCC/C(Cl)=N\OC(=O)Nc1ccc(OC(F)(F)F)cc1 | 4.41 |
| COc1cccc(/C=N/n2c(C)n[nH]c2=O)c1 | > 100 |
| Cc1ccc(S(=O)(=O)NC(=O)N[C@@H](Cc2cnc[nH]2)C(=O)O)cc1 | > 100 |
| CC(=O)OCC1OC(n2c3c(cc(C#N)c2=S)CCCCC3)C(OC(C)=O)C(OC(C)=O)C1OC(C)=O (stereo unspecified) | > 100 |
| CCN1CCC(O)(/C=C/c2ccc(C)cc2C)C(C(=O)/C=C/c2ccc(C)cc2C)C1 (stereo unspecified) | 3.47 |
| S=C(Nc1ccc2c(c1)oc1ccccc12)c1cccnc1 | > 100 |
| Cc1cc(S(=O)(=O)Nc2nc3cc(-c4ccc(Cl)cc4)sc3c(=O)n2N)c(S)cc1Cl | 98.7 |
| [N-]=[N+]=NC1=C(c2ccccn2)C(=O)c2cccc3cccc1c23 | > 100 |
| C=C([C@@]1(O)C[C@H]2[C@H](CCC2(OC)OC)[C@@H]2c3ccccc3O[C@@H]21)[Si](C)(C)C | > 100 |
| O=C(O)c1ccc(OCc2nc3cc(C(F)(F)F)ccc3nc2-c2ccccc2)cc1 | 67.6 |
| COc1ccc2c(c1)CCN1CCc3ccccc3CC21 (stereo unspecified) | > 100 |
| CN(C)c1ccc(C2SCC(=O)N2c2ccc(Oc3ccc(Cl)cc3)c(Cl)c2)cc1 (stereo unspecified) | > 100 |
| Nc1ccc(C(=O)N2CCC[C@H]2CO)c(N)c1 | > 100 |
| O=c1oc2ccc([N+](=O)[O-])cc2c(Nc2ccc3c(c2)Oc2ccccc2O3)c1[N+](=O)[O-] | > 100 |
| CC1=C(CO)C(=O)O[C@@H]([C@@H](CO)[C@H]2CCC3C4C[C@@H](O)[C@@]5(O)CC=CC(=O)[C@]5(C)C4CC[C@@]32C)C1 (stereo partly specified) | > 100 |
| Cn1c2ccccc2c(=O)c2cccc(C(=O)NC(CCCN=C(N)N)C(=O)O)c21 (stereo unspecified) | > 100 |
| O=C(O)/C=c1/c2ccccc2n2nc3ccccc3c12 | 66.1 |
| O=C1c2ccccc2C2(c3ccc(Cl)cc3)N[C@H]3CCCC[C@@H]3N12 (stereo partly specified) | > 100 |

Tested on: BT-549 breast
Test: NCI anticancer screen, dose series, 48 h

| Structure (SMILES) | TGI [µM] |
| --- | --- |
| C=C1C(=O)C=C[C@]2(C)CC[C@H]3C(=C)C(=O)O[C@@H]3[C@@H]12 | 9.85 |
| CC12CCC(O)CC1CCC1C2CCC2(C)C(C(=O)CC(O)C(F)(F)F)CCC12 (stereo unspecified) | > 100 |
| CC(C)(C)OC(=O)NCCCNC1(c2cc3ccccc3s2)CCCCC1 | 27 |
| CC(C)(C)C(=O)CC1=Nc2ccccc2SC1(O)CC(=O)C(C)(C)C (stereo unspecified) | 51.1 |
| N#CC1=C(N)N(c2ccccc2)C(c2ccccc2)C1(C#N)C#N (stereo unspecified) | 37 |
| C=CCOc1ccc(C2(O)c3ccccc3C3=NCCCN32)cc1 (stereo unspecified) | > 100 |
| O=C1/C(=C/c2ccc(Cl)cc2)CSc2ccccc21 | 78.6 |
| CCC/C(Cl)=N\OC(=O)Nc1ccc(OC(F)(F)F)cc1 | 56.6 |
| COc1cccc(/C=N/n2c(C)n[nH]c2=O)c1 | > 100 |
| Cc1ccc(S(=O)(=O)NC(=O)N[C@@H](Cc2cnc[nH]2)C(=O)O)cc1 | > 100 |
| CC(=O)OCC1OC(n2c3c(cc(C#N)c2=S)CCCCC3)C(OC(C)=O)C(OC(C)=O)C1OC(C)=O (stereo unspecified) | > 100 |
| CCN1CCC(O)(/C=C/c2ccc(C)cc2C)C(C(=O)/C=C/c2ccc(C)cc2C)C1 (stereo unspecified) | 8.52 |
| S=C(Nc1ccc2c(c1)oc1ccccc12)c1cccnc1 | > 100 |
| Cc1cc(S(=O)(=O)Nc2nc3cc(-c4ccc(Cl)cc4)sc3c(=O)n2N)c(S)cc1Cl | > 100 |
| [N-]=[N+]=NC1=C(c2ccccn2)C(=O)c2cccc3cccc1c23 | 67.2 |
| C=C([C@@]1(O)C[C@H]2[C@H](CCC2(OC)OC)[C@@H]2c3ccccc3O[C@@H]21)[Si](C)(C)C | > 100 |
| O=C(O)c1ccc(OCc2nc3cc(C(F)(F)F)ccc3nc2-c2ccccc2)cc1 | > 100 |
| COc1ccc2c(c1)CCN1CCc3ccccc3CC21 (stereo unspecified) | > 100 |
| CN(C)c1ccc(C2SCC(=O)N2c2ccc(Oc3ccc(Cl)cc3)c(Cl)c2)cc1 (stereo unspecified) | 48.2 |
| COc1ccc(/C=C2\N=C(SC)NC2=O)cc1 | > 100 |
| Nc1ccc(C(=O)N2CCC[C@H]2CO)c(N)c1 | > 100 |
| O=c1oc2ccc([N+](=O)[O-])cc2c(Nc2ccc3c(c2)Oc2ccccc2O3)c1[N+](=O)[O-] | > 100 |
| CC1=C(CO)C(=O)O[C@@H]([C@@H](CO)[C@H]2CCC3C4C[C@@H](O)[C@@]5(O)CC=CC(=O)[C@]5(C)C4CC[C@@]32C)C1 (stereo partly specified) | > 100 |
| Cn1c2ccccc2c(=O)c2cccc(C(=O)NC(CCCN=C(N)N)C(=O)O)c21 (stereo unspecified) | > 100 |
| O=C(O)/C=c1/c2ccccc2n2nc3ccccc3c12 | > 100 |
| O=C1c2ccccc2C2(c3ccc(Cl)cc3)N[C@H]3CCCC[C@@H]3N12 (stereo partly specified) | > 100 |

Tested on: CCRF-CEM leukemia
Test: NCI anticancer screen, dose series, 48 h

| Structure (SMILES) | TGI [µM] |
| --- | --- |
| C=C1C(=O)C=C[C@]2(C)CC[C@H]3C(=C)C(=O)O[C@@H]3[C@@H]12 | > 100 |
| CC12CCC(O)CC1CCC1C2CCC2(C)C(C(=O)CC(O)C(F)(F)F)CCC12 (stereo unspecified) | > 93.1 |
| CC(C)(C)OC(=O)NCCCNC1(c2cc3ccccc3s2)CCCCC1 | 40.3 |
| CC(C)(C)C(=O)CC1=Nc2ccccc2SC1(O)CC(=O)C(C)(C)C (stereo unspecified) | 32.2 |
| N#CC1=C(N)N(c2ccccc2)C(c2ccccc2)C1(C#N)C#N (stereo unspecified) | 33.7 |
| C=CCOc1ccc(C2(O)c3ccccc3C3=NCCCN32)cc1 (stereo unspecified) | > 100 |
| O=C1/C(=C/c2ccc(Cl)cc2)CSc2ccccc21 | 9.26 |
| CCC/C(Cl)=N\OC(=O)Nc1ccc(OC(F)(F)F)cc1 | > 26.7 |
| COc1cccc(/C=N/n2c(C)n[nH]c2=O)c1 | > 100 |
| Cc1ccc(S(=O)(=O)NC(=O)N[C@@H](Cc2cnc[nH]2)C(=O)O)cc1 | > 100 |
| CC(=O)OCC1OC(n2c3c(cc(C#N)c2=S)CCCCC3)C(OC(C)=O)C(OC(C)=O)C1OC(C)=O (stereo unspecified) | > 100 |
| CCN1CCC(O)(/C=C/c2ccc(C)cc2C)C(C(=O)/C=C/c2ccc(C)cc2C)C1 (stereo unspecified) | 7.8 |
| S=C(Nc1ccc2c(c1)oc1ccccc12)c1cccnc1 | > 100 |
| Cc1cc(S(=O)(=O)Nc2nc3cc(-c4ccc(Cl)cc4)sc3c(=O)n2N)c(S)cc1Cl | 59 |
| [N-]=[N+]=NC1=C(c2ccccn2)C(=O)c2cccc3cccc1c23 | > 100 |
| O=C(O)c1ccc(OCc2nc3cc(C(F)(F)F)ccc3nc2-c2ccccc2)cc1 | > 100 |
| COc1ccc2c(c1)CCN1CCc3ccccc3CC21 (stereo unspecified) | > 100 |
| CN(C)c1ccc(C2SCC(=O)N2c2ccc(Oc3ccc(Cl)cc3)c(Cl)c2)cc1 (stereo unspecified) | 69.5 |
| COc1ccc(/C=C2\N=C(SC)NC2=O)cc1 | > 100 |
| Nc1ccc(C(=O)N2CCC[C@H]2CO)c(N)c1 | > 100 |
| O=c1oc2ccc([N+](=O)[O-])cc2c(Nc2ccc3c(c2)Oc2ccccc2O3)c1[N+](=O)[O-] | 84.7 |
| CC1=C(CO)C(=O)O[C@@H]([C@@H](CO)[C@H]2CCC3C4C[C@@H](O)[C@@]5(O)CC=CC(=O)[C@]5(C)C4CC[C@@]32C)C1 (stereo partly specified) | > 100 |
| O=C(O)/C=c1/c2ccccc2n2nc3ccccc3c12 | 99.6 |
| O=C1c2ccccc2C2(c3ccc(Cl)cc3)N[C@H]3CCCC[C@@H]3N12 (stereo partly specified) | > 100 |

Tested on: HCT-116 colon
Test: NCI anticancer screen, dose series, 48 h

| Structure (SMILES) | TGI [µM] |
| --- | --- |
| C=C1C(=O)C=C[C@]2(C)CC[C@H]3C(=C)C(=O)O[C@@H]3[C@@H]12 | 0.483 |
| CC12CCC(O)CC1CCC1C2CCC2(C)C(C(=O)CC(O)C(F)(F)F)CCC12 (stereo unspecified) | > 100 |
| CC(C)(C)OC(=O)NCCCNC1(c2cc3ccccc3s2)CCCCC1 | 24.8 |
| CC(C)(C)C(=O)CC1=Nc2ccccc2SC1(O)CC(=O)C(C)(C)C (stereo unspecified) | 53.7 |
| N#CC1=C(N)N(c2ccccc2)C(c2ccccc2)C1(C#N)C#N (stereo unspecified) | 29.4 |
| C=CCOc1ccc(C2(O)c3ccccc3C3=NCCCN32)cc1 (stereo unspecified) | > 100 |
| CCC/C(Cl)=N\OC(=O)Nc1ccc(OC(F)(F)F)cc1 | > 51.6 |
| COc1cccc(/C=N/n2c(C)n[nH]c2=O)c1 | > 100 |
| Cc1ccc(S(=O)(=O)NC(=O)N[C@@H](Cc2cnc[nH]2)C(=O)O)cc1 | > 100 |
| CC(=O)OCC1OC(n2c3c(cc(C#N)c2=S)CCCCC3)C(OC(C)=O)C(OC(C)=O)C1OC(C)=O (stereo unspecified) | > 100 |
| S=C(Nc1ccc2c(c1)oc1ccccc12)c1cccnc1 | > 100 |
| Cc1cc(S(=O)(=O)Nc2nc3cc(-c4ccc(Cl)cc4)sc3c(=O)n2N)c(S)cc1Cl | > 100 |
| [N-]=[N+]=NC1=C(c2ccccn2)C(=O)c2cccc3cccc1c23 | > 100 |
| C=C([C@@]1(O)C[C@H]2[C@H](CCC2(OC)OC)[C@@H]2c3ccccc3O[C@@H]21)[Si](C)(C)C | > 100 |
| O=C(O)c1ccc(OCc2nc3cc(C(F)(F)F)ccc3nc2-c2ccccc2)cc1 | > 100 |
| COc1ccc2c(c1)CCN1CCc3ccccc3CC21 (stereo unspecified) | > 100 |
